Data from paper PMC13172357 (Nature Communications, 2026).
Several values for one entry are separate records, joined by “and”; a condition that tells them apart may be missing. Identical values can stand only once.

Experiments:
Format in all cases: cell-based
USP7 [1] = molecular target: T1, USP7 (Homo sapiens, UniProt Q93009); experiment: USP7 degradation, Western blot densitometry, Ma-Mel-47 cells; conditions: for USP7 degradation (in words): 24 h; for USP7 levels in time course (in words): over 24 h; for DC50: read-out: DC50 (half-maximal degradation concentration)
T1 construct: allowed the analysis of endogenous USP7 degradation in both cell lines; endogenous in cells; host or cells: Panc89 (PDAC) and Ma-Mel-47 (melanoma) cells
T1 sequence (Q93009 whole entry): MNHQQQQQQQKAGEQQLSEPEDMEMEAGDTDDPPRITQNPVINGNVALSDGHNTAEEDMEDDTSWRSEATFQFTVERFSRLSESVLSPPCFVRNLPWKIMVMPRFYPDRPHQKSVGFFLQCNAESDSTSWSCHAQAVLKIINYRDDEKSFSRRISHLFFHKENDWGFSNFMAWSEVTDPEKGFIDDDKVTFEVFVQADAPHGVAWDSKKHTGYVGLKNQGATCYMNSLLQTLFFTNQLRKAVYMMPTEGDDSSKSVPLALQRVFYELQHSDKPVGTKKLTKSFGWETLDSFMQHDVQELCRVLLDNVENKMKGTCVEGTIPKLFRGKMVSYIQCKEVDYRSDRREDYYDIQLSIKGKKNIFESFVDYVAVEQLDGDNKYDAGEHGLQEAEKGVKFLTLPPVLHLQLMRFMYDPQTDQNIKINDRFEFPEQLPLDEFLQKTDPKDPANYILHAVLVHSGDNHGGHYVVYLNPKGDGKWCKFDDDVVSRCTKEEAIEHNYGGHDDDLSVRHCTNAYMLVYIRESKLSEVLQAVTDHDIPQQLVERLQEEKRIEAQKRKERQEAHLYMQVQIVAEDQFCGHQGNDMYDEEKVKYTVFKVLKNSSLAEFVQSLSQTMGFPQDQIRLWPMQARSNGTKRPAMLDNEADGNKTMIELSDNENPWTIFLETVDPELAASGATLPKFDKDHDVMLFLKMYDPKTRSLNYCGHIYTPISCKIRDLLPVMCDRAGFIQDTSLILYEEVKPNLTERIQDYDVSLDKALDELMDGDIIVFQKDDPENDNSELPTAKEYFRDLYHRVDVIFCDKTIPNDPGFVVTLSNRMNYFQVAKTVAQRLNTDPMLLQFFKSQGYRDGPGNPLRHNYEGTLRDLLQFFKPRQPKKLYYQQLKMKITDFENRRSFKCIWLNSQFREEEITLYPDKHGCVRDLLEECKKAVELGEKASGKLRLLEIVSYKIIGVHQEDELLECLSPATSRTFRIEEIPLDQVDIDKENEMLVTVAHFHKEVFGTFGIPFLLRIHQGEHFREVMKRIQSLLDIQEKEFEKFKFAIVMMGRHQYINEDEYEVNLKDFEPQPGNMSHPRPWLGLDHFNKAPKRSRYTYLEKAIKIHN
Procedure: (§1) The melanoma cell line Ma-Mel-47 (established previously[57] from metastatic lesions from patient tumor tissues after written informed consent) and the PDAC cell line Panc89 (RRID: CVCL_4056, also referenced as T3M-4[58]) were cultured in a humidified incubator with 5% CO2 at 37 °C in RPMI1640 (Ma-Mel-47) / DMEM (Panc89) medium containing 10% (v/v) fetal calf serum (FCS) and penicillin/streptomycin (all Gibco, Thermo Fisher Scientific). Studies on human material were approved by the institutional review board. […] Testing for mycoplasma was performed by PCR monthly. To confirm cell identity, STR analysis was performed by the Microsynth Seqlab GmbH.
(§2) To prepare samples for Western blot analysis, cells were seeded in 6-well dishes the day before treatment to adhere at 70–80% confluency.
(§3) Cell pellets of all PDAC samples were lysed via adding a buffer containing 150 mM NaCl, 50 mM Tris/HCl (pH 7.4), 1% Triton X-100, 10 mM EDTA, 1 mM PMSF, 10 mM orthovanadate, and 1% aprotinin, incubating on ice for 1 h with vortexing every 15 minutes. Lysates were cleared of cell debris by centrifugation at 10,000 ×g at 4 °C for 10 min. […] Lysates were then clarified of cell debris by centrifugation at 13,000 ×g at 4 °C for 15 min. Thereafter, the total protein concentrations were either determined immediately or the protein extracts were stored at −20 or −80 °C. Pellets for samples shown in Fig. 6 and Supplementary Fig. 6 were lysed in 120 µL lysis buffer (50 mM Tris pH 8.0, 150 mM NaCl, 1% (v/v) IGEPAL, 0.5% (w/v) Na-deoxycholate, 0.1% (w/v) SDS) supplemented with 1x EDTA-free inhibitor protease cocktail (cOmplete, Roche) for 15 min at 4 °C. 0.2 µL Turbonuclease (Sigma Aldrich) and 5 mM MgCl2 were then added and lysates were incubated for 15 min at 4 °C. Cell debris was separated by centrifugation at 20,817 ×g for 15 min at 4 °C.
(§4) Protein concentrations of cell lysates were measured using the Pierce BCA Protein Assay (Thermo Fisher Scientific) or the Quick Start Bradford Protein Assay (Bio-Rad), following the manufacturers’ protocols. Measurements were recorded on Tecan Spark or Tecan Infinite M200 plate readers. Lysates were kept on ice throughout the entire process.
(§5) To separate proteins via SDS-PAGE, 10-20 µg of protein in lysis buffer was diluted with SDS-PAGE loading buffer (for most blots containing DTT or 2-mercaptoethanol) and denatured at 95 °C for 5 min. Protein separation was conducted at 95–110 V using the Mini-PROTEAN electrophoresis system (Bio-Rad). Proteins were then transferred to PVDF or nitrocellulose membranes using the Trans-Blot Turbo system (Bio-Rad) with the Trans-Blot Turbo RTA Kit for PVDF membranes. Prior to transfer, membranes were activated by soaking in 100% ethanol (for PVDF) or distilled water (for nitrocellulose) and proteins were transferred using the Mixed MW or the standard (1.0 A, 25 V, 30 min) protocol.
(§6) After transfer, membranes were blocked in 5% (w/v) milk/TBS-T for 1 h and then washed three times for 10 min with TBS-T. They were incubated overnight at 4 °C with the primary antibody in 5% (w/v) milk/TBS-T or 1% (w/v) BSA/TBS-T. Membranes were then washed three times for 10 min with TBS-T and incubated with horseradish peroxidase (HRP)-conjugated secondary antibodies in a solution of 5% (w/v) BSA/TBS-T or 1% (w/v) milk/TBS-T for 1 h at room temperature. PBS-T was used for blots shown in Fig. 6 and Supplementary Fig. 6.
(§7) Membranes were incubated with Clarity Western ECL substrate (Bio-Rad) for PDAC samples or Pierce ECL Western Blotting-Substrate (Thermo Fisher Scientific) for melanoma. Chemiluminescent signals were detected with a ChemiDoc Imaging System (Bio-Rad) for PDAC samples or with a ECL Chemostar Imager (Intas Science Imaging) for melanoma samples.
(§8) Densitometric quantification of band intensities for Fig. 2c, d was performed using the ImageJ software.

HiBiT-USP7 = HiBiT-USP7 (Homo sapiens, UniProt Q93009); experiment: HiBiT USP7 degradation assay, MV4-11 cells; conditions: for DC50: MV4-11 HiBiT-USP7, 24 h
Sequence of HiBiT-USP7 (Q93009 whole entry, the tested form may be a part): as the sequence (Q93009 whole entry) above
Procedure: HiBiT-USP7 construct was cloned by extraction of USP7 fragment from plasmid pQHA-USP7 WT puroR (Addgene #46753) using appropriate restriction sites. The USP7 fragment was then ligated into the pRRL-PGK-HiBiT entry vector to generate the plasmid.
Lentiviral infection was used to generate stable a MV4-11 HiBiT cell line. Lentivirus was produced using plasmids psPAX2, pMD2.G, and HiBiT-USP7 plasmid in HEK293 cells. MV4-11 cells were infected with filtered virus supernatant and selected after 48 h of infection for the generation of the stable MV4-11^HiBiT-USP7 cell line.
The assay was performed as described previously. Briefly, MV4-11^HiBiT-USP7 cells were seeded and treated with compounds for the indicated time. Nano-Glo HiBiT Lytic Detection System (Promega) was used for the assay and luminescence was measured on a Tecan Spark microplate reader (Tecan). DC50 values were calculated using the sigmoidal dose-response (four parameters) equation in GraphPad Prism and are given as the concentration where 50% of the total signal was remaining. Dmax values are given as the maximum degradation observed at any concentration.

USP7 [2] = molecular target: T1, USP7; experiment: USP7 degradation, Western blot densitometry, Panc89 cells; conditions: for USP7 degradation (in words): 24 h; for DC50: read-out: DC50 (half-maximal degradation concentration)
Procedure: as §1, §2, §3, §4, §5, §6, §7, §8

[3] = Ma-Mel-47, 24 h, Western blot densitometry
[4] = MV4-11, MV4-11 HiBiT-USP7, 24 h
[5] = Panc89, 24 h, Western blot densitometry

Row | Compound | USP7 degradation (in words) (USP7 [1]; Ma-Mel-47, 1 µM) | USP7 levels in time course (in words) (USP7 [1]; Ma-Mel-47, 1 µM) | DC50 (USP7 [1]; [3]) | Dmax (HiBiT-USP7; MV4-11, MV4-11 HiBiT-USP7, 6 h) | Dmax (HiBiT-USP7; [4]) | DC50 (HiBiT-USP7) | USP7 degradation (in words) (USP7 [2]; Panc89, 5 µM, Western blot) | Concentration of near complete degradation of USP7 (USP7 [2]; Panc89, 24 h) | Dmax (USP7 [2]; [5]) | DC50 (USP7 [2]; [5]) | Time after which USP7 degradation was observed (USP7 [1]; Ma-Mel-47, 1 µM) | USP7 degradation (in words) (USP7 [1]; Ma-Mel-47, 5 µM, Western blot) | Dmax (USP7 [1]; [3]) | Time after which USP7 degradation was observed (USP7 [2]; Panc89, 1 µM) | USP7 degradation (in words) (USP7 [2]; Panc89, increasing concentrations) | HiBiT-USP7 levels (in words) (HiBiT-USP7; MV4-11 HiBiT-USP7, 6 h and 24 h) | USP7 levels in time course (in words) (USP7 [2]; Panc89, 1 µM, over 24 h)
1 | Cc1ncsc1-c1ccc([C@H](C)NC(=O)[C@@H]2C[C@@H](O)CN2C(=O)[C@@H](NC(=O)[C@H]2CC[C@H](C(=O)N3CCN(c4ccc(-n5ncc6c(=O)n(CC7(O)CCN(C(=O)C[C@@H](C)c8ccccc8)CC7)cnc65)cc4)CC3)CC2)C(C)(C)C)cc1 [NK250] | not able to fully degrade USP7 | weak effects | 0.154 ± 0.038 µM | 87% | 90 to 92% | 0.004 µM | complete degradation | ~100 nM | 98% | 0.008 µM |  |  |  |  |  |  | 
2 | Cc1ncsc1-c1ccc([C@H](C)NC(=O)[C@@H]2C[C@@H](O)CN2C(=O)[C@@H](NC(=O)C23C4C5C2C2C3C4C52C(=O)N2CCC(C3CCN(c4ccc(-n5ncc6c(=O)n(CC7(O)CCN(C(=O)C[C@@H](C)c8ccccc8)CC7)cnc65)cc4)CC3)CC2)C(C)(C)C)cc1 (some centres unmarked) [NK266] |  |  | 0.029 µM | 74% | 90 to 92% | 0.024 µM |  |  |  | 0.049 µM | 16 h | higher potency | 94% | 16 h and 16 to 24 h | near complete degradation of USP7 |  | 
3 | Cc1ncsc1-c1ccc(CNC(=O)[C@@H]2C[C@H](O)CN2C(=O)[C@@H](NC(=O)[C@H]2CC[C@H](C(=O)N3CCN(c4ccc(-n5ncc6c(=O)n(CC7(O)CCN(C(=O)C[C@@H](C)c8ccccc8)CC7)cnc65)cc4)CC3)CC2)C(C)(C)C)cc1 [NK245] |  | did not reduce protein levels |  |  |  |  |  |  |  |  |  |  |  |  |  | partial reduction of USP7 levels | did not reduce protein levels
